# Source: patent US20100184813A1, “CHEMICAL COMPOUNDS 553” (AstraZeneca AB, priority 2008, published 2010)
# Biological target: T1, human DGAT1 (Homo sapiens, UniProt O75907)
# T1 construct: made in house; host or cells: Sf9 insect cells (baculovirus); membrane fraction
# T1 sequence (O75907 1-488): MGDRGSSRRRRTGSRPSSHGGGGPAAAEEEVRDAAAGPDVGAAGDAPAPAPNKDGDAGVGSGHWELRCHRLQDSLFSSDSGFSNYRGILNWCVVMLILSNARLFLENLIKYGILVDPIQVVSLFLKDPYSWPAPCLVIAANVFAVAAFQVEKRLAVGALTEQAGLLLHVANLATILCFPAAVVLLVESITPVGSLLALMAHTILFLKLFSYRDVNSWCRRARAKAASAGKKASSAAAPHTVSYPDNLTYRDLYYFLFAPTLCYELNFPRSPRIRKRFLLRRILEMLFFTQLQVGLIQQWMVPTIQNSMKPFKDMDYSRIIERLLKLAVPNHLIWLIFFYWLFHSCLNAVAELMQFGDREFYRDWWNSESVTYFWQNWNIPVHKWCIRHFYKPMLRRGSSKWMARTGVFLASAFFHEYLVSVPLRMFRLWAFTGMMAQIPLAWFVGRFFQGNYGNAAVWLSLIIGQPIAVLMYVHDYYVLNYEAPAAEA
# Assay: Human Enzyme Assay (DGAT1 inhibition, 14C oleoyl coenzyme A, insect cell membranes)
# Type: biochemical
# Conditions: human DGAT1 expressed in sf9 insect cell membranes; usually a mean of 2 measurements
# Method: See, for example, International Application WO 2005/044250.
# The in vitro assay to identify DGAT1 inhibitors uses human DGAT1 expressed in insect cell membranes as the enzyme source (Proc. Natl. Acad. Sci. 1998, 95, 13018-13023). Briefly, sf9 cells were infected with recombinant baculovirus containing human DGAT1 coding sequences and harvested after 48 h. Cells were lysed by sonication and membranes isolated by centrifuging at 28000 rpm for 1 h at 4° C. on a 41% sucrose gradient. The membrane fraction at the interphase was collected, washed, and stored in liquid nitrogen.
# DGAT1 activity was assayed by a modification of the method described by Coleman (Methods in Enzymology 1992, 209, 98-102). Compound at 0.0000256 μM-33 μM (final conc.) (typically 10 μM) was incubated with 4 μg/ml (final conc) membrane protein, 5 mM MgCl2, and 100 μM 1,2 dioleoyl-sn-glycerol (dissolved in acetone with a final assay conc. of acetone of 10%) in a total assay volume of 200 μl in a 96 well plate. The reaction was started by adding ^14C oleoyl coenzyme A (30 μM final concentration) and incubated at room temperature for 30 minutes. The reaction was stopped by adding 200 μl 2-propanol:heptane 7:1. Radioactive triolein product was separated into the organic phase by adding 300 μl heptane and 100 μl 0.1 M carbonate buffer pH 9.5. DGAT1 activity was quantified by counting aliquots of the upper heptane layer by liquid scintillography.
# Stated figures are usually a mean of a number of measurements (usually 2 measurements) according to standard practice.
row,SMILES,IC50
1,"O=C(Nc1ccc([C@H]2CC[C@H](C(=O)O)CC2)cc1F)c1nnc(Nc2ccc(OC(F)(F)F)cc2)o1 [Example 3, (1r,4r)-4-(3-Fluoro-4-(5-(4-(trifluoromethoxyl)phenylamino)-1,3,4-oxadiazole-2-carboxamido)phenyl)cyclohexanecarboxylic acid]",0.011 µM
2,"O=C(Nc1ccc([C@H]2CC[C@H](C(=O)O)CC2)cc1F)c1nnc(Nc2cc(F)c(F)cc2F)o1 [Example 6, (1r,4r)-4-(3-Fluoro-4-(5-(2,4,5-trifluorophenylamino)-1,3,4-oxadiazole-2-carboxamido)phenyl)cyclohexanecarboxylic acid]",0.0037 µM
3,O=C(Nc1ccc([C@H]2CC[C@H](C(=O)O)CC2)cc1F)c1nnc(Nc2ccc(OC(F)F)cc2)o1 [Example 2],0.028 µM
4,"O=C(Nc1ccc([C@H]2CC[C@H](C(=O)O)CC2)cc1F)c1nnc(Nc2cccc(Cl)c2)o1 [Example 4, (1r,4r)-4-(4-(5-(3-Chlorophenylamino)-1,3,4-oxadiazole-2-carboxamido)-3-fluorophenyl)cyclohexanecarboxylic acid]",0.012 µM
5,"O=C(Nc1ccc([C@H]2CC[C@@H](C(=O)O)CC2)cc1F)c1nnc(Nc2ccc(F)c(F)c2)o1 [Example 7, (1s,4s)-4-(4-(5-(3,4-Difluorophenylamino)-1,3,4-oxadiazole-2-carboxamido)-3-fluorophenyl)cyclohexanecarboxylic acid]",0.0092 µM
6,"O=C(Nc1ccc([C@H]2CC[C@@H](C(=O)O)CC2)cc1F)c1nnc(Nc2cc(F)c(F)cc2F)o1 [Example 8, (1s,4s)-4-(3-Fluoro-4-(5-(2,4,5-trifluorophenylamino)-1,3,4-oxadiazole-2-carboxamido)phenyl)cyclohexanecarboxylic acid]",0.0047 µM
7,"O=C(Nc1ccc([C@H]2CC[C@H](C(=O)O)CC2)cc1F)c1nnc(Nc2ccc(F)c(F)c2)o1 [Example 5, (1r,4r)-4-(4-(5-(3,4-Difluorophenylamino)-1,3,4-oxadiazole-2-carboxamido)-3-fluorophenyl)cyclohexanecarboxylic acid]",0.0055 µM
8,"O=C(Nc1ccc([C@H]2CC[C@H](C(=O)O)CC2)cc1F)c1nnc(Nc2ccc(C(F)(F)F)cc2)o1 [Example 1, (1r,4r)-4-(3-Fluoro-4-(5-(4-(trifluoromethyl)phenylamino)-1,3,4-oxadiazole-2-carboxamido)phenyl)cyclohexanecarboxylic acid]",0.016 µM
